ChEMBL document CHEMBL3046575, “Synthesis and studies on antidepressant activity of 2,4,6-trihydroxychalcone derivatives” (2012)
Calls of active or inactive are those of the source. The rule behind the calls is not given here.

tested on: Mus musculus; assay: Antidepressant activity in Mus musculus (mouse) assessed as reduction in immobility time at 10 to 40 mg/kg, ip administered 30 min before test by tail suspension test; assay type: functional, organism-based; conditions: not given

Row | Structure (SMILES) | Activity
1 | O=C(/C=C/c1ccccc1Br)c1c(O)cc(O)cc1O | Active

tested on: Mus musculus; assay: Antidepressant activity in Mus musculus Kunming (mouse) assessed as reduction in immobility time at 10 to 40 mg/kg, ip administered 30 min before test by forced swim test; assay type: functional, organism-based; conditions: not given

Row | Structure (SMILES) | Activity
2 | O=C(/C=C/c1ccccc1Br)c1c(O)cc(O)cc1O | Active

tested on: Mus musculus; assay: Antidepressant activity in Mus musculus Kunming (mouse) assessed as reduction in immobility time at 10 mg/kg, ip administered 30 min before test by forced swim test relative to control; assay type: functional; design: scale not given: the % may be the effect or the level left; conditions: route intraperitoneal

Row | Structure (SMILES) | Activity
3 | COc1cc(/C=C/C(=O)c2c(O)cc(O)cc2O)ccc1O | 22.89%
4 | O=C(/C=C/c1ccc(Cl)cc1)c1c(O)cc(O)cc1O [4-CHLORO-2',4',6'-TRIHYDROXYCHALCONE] | 27.07%
5 | O=C(/C=C/c1ccccc1F)c1c(O)cc(O)cc1O | 33.55%
6 | O=C(/C=C/c1ccccc1Br)c1c(O)cc(O)cc1O | 50.04%
7 | O=C(/C=C/c1ccc(O)c(O)c1)c1c(O)cc(O)cc1O [3,4,2',4',6'-PENTAHYDROXYCHALCONE] | 29.09%
8 | O=C(/C=C/c1cccc(Cl)c1)c1c(O)cc(O)cc1O | 27.57%
9 | COc1ccc(/C=C/C(=O)c2c(O)cc(O)cc2O)cc1 [4-METHOXYL-2',4',6'-TRIHYDROXYCHALCONE] | 11.09%
10 | COc1ccc(/C=C/C(=O)c2c(O)cc(O)cc2O)cc1OC | 17.57%
11 | O=C(/C=C/c1cccc(F)c1)c1c(O)cc(O)cc1O | 17.21%
12 | Cc1ccc(/C=C/C(=O)c2c(O)cc(O)cc2O)cc1C | 13.31%
13 | O=C(/C=C/c1ccc(F)cc1)c1c(O)cc(O)cc1O [4-FLUORO-2',4',6'-TRIHYDROXYCHALCONE] | 4.39%
14 | O=C(/C=C/c1ccccc1Cl)c1c(O)cc(O)cc1O | 18.72%
15 | O=C(/C=C/c1ccc(Br)cc1)c1c(O)cc(O)cc1O [4-BROMO-2',4',6'-TRIHYDROXYCHALCONE] | 19.29%
16 | O=C(/C=C/c1ccc(Cl)cc1Cl)c1c(O)cc(O)cc1O | 27.43%
17 | CNCCC(Oc1ccc(C(F)(F)F)cc1)c1ccccc1 (stereo not given) [FLUOXETINE] | 58.68%
18 | Cc1ccc(/C=C/C(=O)c2c(O)cc(O)cc2O)cc1 | 17.35%
19 | O=C(/C=C/c1cccc(Br)c1)c1c(O)cc(O)cc1O | 26.64%
20 | O=C(/C=C/c1ccc(O)cc1)c1c(O)cc(O)cc1O [4,2',4',6'-TETRAHYDROXYCHALCONE] | 28.51%
